From ChEMBL document CHEMBL3832761, “MMV Pathogen Box Bioactivity Data” (2017)

Legend:
Trypanosoma cruzi = test: AntiTrypanosoma cruzi activity IC50 (uM); type: functional, organism-based
Trypanosoma brucei [1] = test: AntiTrypanosoma brucei activity T. b. brucei IC50 (uM); type: functional, organism-based
Trypanosoma brucei [2] = test: AntiTrypanosoma brucei activity T. b. rhodesiense IC50 (uM); type: functional, organism-based
Leishmania infantum = test: AntiLeishmania activity L. infantum (macrophages) IC50 (uM); type: functional, organism-based
Leishmania donovani [3] = test: AntiLeishmania activity L. donovani (axenic) IC50 (uM); type: functional, organism-based
Leishmania donovani [4] = test: AntiLeishmania activity L. donovani (macrophages) IC50 (uM); type: functional, organism-based
Leishmania = test: AntiLeishmania activity Toxicity on infected PMM (uM); type: functional
HepG2 [5] = test: Cytotoxicity data HepG2 CC20 (uM); type: functional
L6 = test: L6 CC50 (uM) Cytotoxicity; type: functional; settings: Rattus norvegicus
MRC5 = test: MRC5 CC50 (uM) Cytotoxicity; type: functional; settings: Homo sapiens
[6] = PMM CC50 (uM) Cytotoxicity; type: functional; settings: Macrophage
Plasmodium falciparum [7] = test: Antimalarial activity: Asexual Blood Stage Plasmodium falciparum 3D7 IC50 (uM); type: functional, organism-based
Plasmodium falciparum [8] = test: Antimalarial activity: Asexual Blood Stage Plasmodium falciparum Dd2 IC50 (uM); type: functional, organism-based
Plasmodium falciparum [9] = test: Antimalarial activity: Asexual Blood Stage Plasmodium falciparum W2 IC50 (uM); type: functional, organism-based
Plasmodium berghei [10] = test: Antimalarial activity: Liver Stage Plasmodium berghei sporozoite Luciferase assay: inhibition at 10 uM (%); type: functional
Plasmodium berghei [11] = test: Antimalarial activity: Liver Stage Plasmodium berghei sporozoite Luciferase assay IC50 (uM); type: functional, organism-based
Plasmodium falciparum [12] = test: Antimalarial activity: Gametocytes Plasmodium falciparum NF54 Gametocytes Stage V: inhibition at 10 uM (%); type: functional
Plasmodium falciparum [13] = test: Antimalarial activity: Gametocytes Plasmodium falciparum NF54 Gametocytes Stage V IC50 (uM); type: functional, organism-based
HepG2 [14] = test: HepG2 CC50 (uM) Cytotoxicity; type: functional; settings: Homo sapiens

SMILES	IC50 (Trypanosoma cruzi)	IC50 (Trypanosoma brucei [1])	IC50 (Trypanosoma brucei [2])	IC50 (Leishmania infantum)	IC50 (Leishmania donovani [3])	IC50 (Leishmania donovani [4])	IC50 (Plasmodium falciparum [7])	IC50 (Plasmodium falciparum [8])	IC50 (Plasmodium falciparum [9])	IC50 (Plasmodium berghei [11])	IC50 (Plasmodium falciparum [13])	Toxicity on infected macrophages (Leishmania)	CC20 (HepG2 [5])	CC50 (L6)	CC50 (MRC5)	CC50 [6]	Inhibition (Plasmodium berghei [10])	Inhibition (Plasmodium falciparum [12])	CC50 (HepG2 [14])	Toxicity (Leishmania)
CCn1ncc2c(NC3CCOCC3)c(CNC(=O)c3ccnn3C)c(C)nc21	–	–	–	–	–	–	0.28 µM	0.39 µM	0.6 µM	1.6 µM	0.24 µM	–	24.5 µM	–	–	–	100%	89%	> 10 µM	–
COc1ccc(-c2cnc3ccc(N4CCCC4)nn23)cc1OC	–	–	–	–	–	–	0.7 µM	0.67 µM	0.86 µM	0.63 µM	0.41 µM	–	4.95 µM	–	–	–	100%	91%	> 10 µM	–
Cc1ccc(NC(=O)c2nc[nH]c2C(=O)Nc2nc3ccccc3[nH]2)c(C)c1	–	–	–	–	–	–	0.36 µM	0.23 µM	0.32 µM	> 10 µM	> 8.3 µM	–	8.43 µM	–	–	–	99%	88%	> 10 µM	–
CCN(CC)S(=O)(=O)c1ccc(Cl)c(C(=O)Nc2ccc3nc(C)sc3c2)c1	–	–	–	–	–	–	0.5 µM	0.55 µM	0.59 µM	1.31 µM	3.91 µM	–	10 µM	–	–	–	100%	86%	> 10 µM	–
N#Cc1ccc(-c2cnc(N)c(-c3ccc(C(N)=O)cc3)n2)cc1	–	–	–	–	–	–	0.09 µM	0.11 µM	0.21 µM	0.28 µM	0.14 µM	–	12 µM	–	–	–	100%	87%	> 10 µM	–
Cc1ccc2c(c1C)NC(=O)C21NN=C(c2ccccc2)S1 (stereo not given)	–	–	–	–	–	–	1.13 µM	2.13 µM	0.89 µM	0.88 µM	0.9 µM	–	>80 µM	–	–	–	100%	78%	> 7.5 µM	–
Clc1ccc(Cl)c(CO[C@H]2CCCC[C@@H]2n2ccnc2)c1	1.36 µM	> 32 µM	22.9 µM	16.2 µM	15.6 µM	12.8 µM	–	–	–	–	–	30 µM	37.1 µM	30.7 µM	> 32 µM	16 µM	–	–	–	–
Cc1nc(-c2ccccn2)nc(N(C)CCc2ccccc2)c1Cl	0.88 µM	14.9 µM	11.8 µM	4.06 µM	0.02 µM	2.6 µM	–	–	–	–	–	16.7 µM	11.3 µM	9.6 µM	21.7 µM	4 µM	–	–	–	–

More lines, main results first:

IC50 (Trypanosoma cruzi)	IC50 (Trypanosoma brucei [1])	IC50 (Trypanosoma brucei [2])	IC50 (Leishmania infantum)	IC50 (Leishmania donovani [3])	IC50 (Leishmania donovani [4])	IC50 (Plasmodium falciparum [7])	IC50 (Plasmodium falciparum [8])	IC50 (Plasmodium falciparum [9])	IC50 (Plasmodium berghei [11])	IC50 (Plasmodium falciparum [13])	SMILES	Toxicity on infected macrophages (Leishmania)	CC20 (HepG2 [5])	CC50 (L6)	CC50 (MRC5)	CC50 [6]	Inhibition (Plasmodium berghei [10])	Inhibition (Plasmodium falciparum [12])	CC50 (HepG2 [14])	Toxicity (Leishmania)
> 32 µM	> 32 µM	> 32 µM	> 32 µM	0.4 µM	> 30 µM	–	–	–	–	–	O=C(Nc1ccccc1-c1nc2c(C(=O)O)cccc2o1)c1ccccc1	>30 µM	>80 µM	45.4 µM	> 32 µM	> 32 µM	–	–	–	–
4.25 µM	> 32 µM	27.2 µM	16.2 µM	0.25 µM	5.17 µM	–	–	–	–	–	FC(F)(F)c1cc(NCCc2ccccc2)nc(-c2ccccn2)n1	30 µM	>80 µM	5.3 µM	> 32 µM	16 µM	–	–	–	–
16 µM	3.45 µM	1.29 µM	21.5 µM	3.87 µM	> 30 µM	–	–	–	–	–	c1ccc(Oc2ccc(-c3cc(N4CCOCC4)[nH]n3)cc2)cc1	>30 µM	7.47 µM	10 µM	> 32 µM	> 32 µM	–	–	–	–
> 32 µM	> 32 µM	> 32 µM	> 32 µM	3.95 µM	> 30 µM	–	–	–	–	–	COC(=O)c1cccc2oc(-c3cccc(OC)c3NC(=O)c3cc(-c4ccccc4)on3)nc12	>30 µM	>80 µM	50 µM	> 32 µM	> 32 µM	–	–	–	–
16 µM	15.1 µM	5.26 µM	> 32 µM	9.7 µM	26.1 µM	–	–	–	–	–	c1ccc(Oc2ccc(-c3cc(CN4CCOCC4)[nH]n3)cc2)cc1	30 µM	28.9 µM	22.9 µM	> 32 µM	> 32 µM	–	–	–	–
–	–	–	–	–	–	0.49 µM	0.81 µM	0.71 µM	6.8 µM	1.03 µM	COc1ccc(-c2cnc3ccc(NCc4ccc(S(N)(=O)=O)cc4)nn23)cn1	–	3.29 µM	–	–	–	100%	82%	> 10 µM	–
4.62 µM	24.9 µM	16.4 µM	25.4 µM	> 100 µM	22.2 µM	–	–	–	–	–	N#CCN(CCCCN1CCN(c2ccc(F)cc2)CC1)C(=O)OCc1ccccc1	>30 µM	–	15.3 µM	> 32 µM	> 32 µM	–	–	–	>30 µM
> 32 µM	> 32 µM	> 32 µM	> 32 µM	0.57 µM	> 30 µM	–	–	–	–	–	O=C(Nc1c(O)cccc1-c1nc2c(C(=O)O)cccc2o1)c1cc(-c2ccccc2)on1	>30 µM	5.73 µM	21.9 µM	> 32 µM	> 32 µM	–	–	–	–
–	–	–	–	–	–	0.82 µM	2.06 µM	2.14 µM	4.55 µM	1.42 µM	CN1CCC(NCc2cccc(-c3ccc(S(=O)(=O)NCc4ccccc4)cc3)c2)CC1	–	4.15 µM	–	–	–	99%	95%	> 10 µM	–
4.44 µM	> 32 µM	> 32 µM	> 32 µM	2.05 µM	> 30 µM	–	–	–	–	–	Cc1nc(-c2ccccn2)nc(NCCc2ccc(S(C)(=O)=O)cc2)c1Cl	30 µM	27.9 µM	13 µM	> 32 µM	> 32 µM	–	–	–	–
–	–	–	–	–	–	0.1 µM	0.14 µM	0.1 µM	2.52 µM	0.07 µM	COc1cc(-c2cc(-c3ccc(S(C)(=O)=O)cc3)cnc2N)ccc1O	–	1.55 µM	–	–	–	100%	94%	> 10 µM	–
–	–	–	–	–	–	0.6 µM	1.1 µM	1.23 µM	> 10 µM	3.13 µM	CN(C)c1cc(NC(=O)Nc2ccccc2)c2ccccc2n1	–	6.86 µM	–	–	–	98%	88%	> 10 µM	–
